Data: paper PMC8286840, “Identifying SARS-CoV-2 antiviral compounds by screening for small molecule inhibitors of Nsp3 papain-like protease” (Biochemical Journal, 2021)
Structures can show the parent of a compound that is named as a salt. Where two headings read alike, the source gives them in different places.

Columns and labels:
[1] = molecular target: T1, SARS-CoV-2 PLpro (nsp3 1564–1878) (Severe acute respiratory syndrome coronavirus 2, UniProt P0DTD1); experiment: biochemical; design: FRET-quenched peptide (Pro3) cleavage by PLpro, 10 min pre-incubation, slope over 20 min, normalised to no-compound control; conditions: read-out: % of control remaining
[2] = molecular target: T1, SARS-CoV-2 PLpro (nsp3 1564–1878); experiment: biochemical; design: FRET-quenched peptide (Pro3) cleavage by PLpro, 10 min pre-incubation, slope over 20 min, normalised to no-compound control; conditions: read-out: % of control remaining; remark: listed apart in the source

`COc1cc2cc(c1Cl)N(C)C(=O)C[C@H](OC(=O)[C@H](C)N(C)C(=O)CCSC1CC(=O)N(CC3CCC(C(=O)ON4C(=O)CCC4=O)CC3)C1=O)[C@]1(C)O[C@H]1[C@H](C)[C@@H]1C[C@@](O)(NC(=O)O1)[C@H](OC)/C=C/C=C(\C)C2` (stereo partly shown) [SMCC-DM1] showed a remaining activity at 1.25 µM ([1]; Well no.=8216, low concentration screen) of 100% and a remaining activity at 3.75 µM ([2]; Well no.=8216, high concentration screen) of 96.4%.
For `CC1CNc2c(cccc2S(=O)(=O)N[C@@H](CCCNC(=N)N)C(=O)N2CC[C@@H](C)C[C@@H]2C(=O)O)C1` (stereo partly drawn) [(2R,4R)-1-((2S)-5-{[amino(imino)methyl]amino}-2-{[(3-methyl-1,2,3,4-tetrahydro-8-quinolinyl)sulfonyl]amino}pentanoyl)-4-methyl-2-piperidinecarboxylic acid hydrate], the remaining activity at 1.25 µM ([1]; Well no.=5613, low concentration screen) was 96% and the remaining activity at 3.75 µM ([2]; Well no.=5613, high concentration screen) was 96.5%.
With `N[C@@H](CC(=O)O)C(=O)O` [L -Aspartic acid hemimagnesium salt hydrate] the remaining activity at 1.25 µM ([1]; Well no.=5897, low concentration screen) was 103% and the remaining activity at 3.75 µM ([2]; Well no.=5897, high concentration screen) was 105%.
In the case of `COc1ccc2c(c1O)-c1c3c(cc4c1[C@H](C2)N(C)CC4)OCO3` [(+)-Bulbocapnine hydrochloride], the remaining activity at 1.25 µM ([1]; Well no.=494, low concentration screen) is reported as 102% and the remaining activity at 3.75 µM ([2]; Well no.=494, high concentration screen) is reported as 102%.
For `COc1ccc2cc1Oc1ccc(cc1)C[C@H]1c3cc(c(OC)cc3CCN1C)Oc1c(OC)c(OC)cc3c1[C@H](C2)N(C)CC3` [Tetrandrine], the remaining activity at 1.25 µM ([1]; Well no.=3182, low concentration screen) was 103% and the remaining activity at 3.75 µM ([2]; Well no.=3182, high concentration screen) was 99.4%.
With `CC[C@@H](N)CNc1ccnc(-c2cc(-c3cnn(C)c3)ccc2O)n1` [CRT0066101 dihydrochloride] the remaining activity at 1.25 µM ([1]; Well no.=6498, low concentration screen) was 89.1% and the remaining activity at 3.75 µM ([2]; Well no.=6498, high concentration screen) was 90.1%.
`Cc1ccccc1C(C(=O)NC1CCCCC1)N(C(=O)Cn1ccnc1C)c1cccc(F)c1` (stereo not shown) [N-cyclohexyl-2-(N-(3-fluorophenyl)-2-(2-methyl-1H-imidazol-1-yl)acetamido)-2-(o-tolyl)acetamide] was tested, and the remaining activity at 1.25 µM ([1]; Well no.=5600, low concentration screen) was 93.6% and the remaining activity at 3.75 µM ([2]; Well no.=5600, high concentration screen) was 95.4%.
Work on `O=C(O)CCC/C=C\C/C=C\C=C\[C@@H](O)C/C=C\CCCCCO` [12(S),20-DIHETE] yielded a remaining activity at 1.25 µM ([1]; Well no.=4565, low concentration screen) of 99.6% and a remaining activity at 3.75 µM ([2]; Well no.=4565, high concentration screen) of 101%.
With `Cc1ccc(NC(=O)c2cccc(N(C)C)c2)cc1NC(=O)c1ccc(O)cc1` [ZM 336372] the remaining activity at 1.25 µM ([1]; Well no.=5878, low concentration screen) was 103% and the remaining activity at 3.75 µM ([2]; Well no.=5878, high concentration screen) was 102%.
In the case of `N[C@@H](Cc1ccc(N(CCCl)CCCl)cc1)C(=O)O` [Melphalan], the remaining activity at 1.25 µM ([1]; Well no.=1112, low concentration screen) is reported as 94.4%, the remaining activity at 1.25 µM ([1]; Well no.=1953, low concentration screen) is reported as 100% and the remaining activity at 3.75 µM ([2]; Well no.=1112, high concentration screen) is reported as 94.4%.
Work on `CCCCCC(O)CCCC(=O)O` (stereo not shown) [5-hydroxydecanoic acid sodium] yielded a remaining activity at 1.25 µM ([1]; Well no.=714, low concentration screen) of 88.7% and a remaining activity at 3.75 µM ([2]; Well no.=714, high concentration screen) of 85.9%.
`COc1ccc(-c2cc(=O)c3c(O)cc(O[C@@H]4O[C@H](CO[C@@H]5O[C@@H](C)[C@H](O)[C@@H](O)[C@H]5O)[C@@H](O)[C@H](O)[C@H]4O)cc3o2)cc1O` [Diosmin] showed a remaining activity at 1.25 µM ([1]; Well no.=3597, low concentration screen) of 95.3% and a remaining activity at 3.75 µM ([2]; Well no.=3597, high concentration screen) of 97.4%.
`CNCCc1ccccn1` [Betahistine (dihydrochloride)] gave a remaining activity at 1.25 µM ([1]; Well no.=6621, low concentration screen) of 98.5% and a remaining activity at 3.75 µM ([2]; Well no.=6621, high concentration screen) of 92.4%.
With `CN(C(=O)CCCOc1ccc2[nH]c(=O)ccc2c1)C1CCCCC1` [Cilostamide] the remaining activity at 1.25 µM ([1]; Well no.=234, low concentration screen) was 91.5%, the remaining activity at 1.25 µM ([1]; Well no.=2142, low concentration screen) was 95.9% and the remaining activity at 3.75 µM ([2]; Well no.=234, high concentration screen) was 94.4%. It also gave a remaining activity at 3.75 µM ([2]; Well no.=2142, high concentration screen) of 98.8%.
`COc1cc(Nc2ncc3c(n2)-c2ccc(Cl)cc2C(c2c(F)cccc2OC)=NC3)ccc1C(=O)O` [Alisertib] showed a remaining activity at 1.25 µM ([1]; Well no.=6164, low concentration screen) of 103% and a remaining activity at 3.75 µM ([2]; Well no.=6164, high concentration screen) of 103%.
`O=C1c2ccccc2-[n+]2ccc3c([nH]c4ccccc43)c21` [Fascaplysin, Synthetic] showed a remaining activity at 1.25 µM ([1]; Well no.=2458, low concentration screen) of 89% and a remaining activity at 3.75 µM ([2]; Well no.=2458, high concentration screen) of 82.7%.
`CCCn1c(C)c(C(=O)c2cccc3ccccc23)c2ccccc21` [JWH-015] was tested, and the remaining activity at 1.25 µM [1] was 92.6% and the remaining activity at 3.75 µM [2] was 93.1%.
`CCN(CC)CCOC(=O)C(c1ccccc1)c1ccccc1` [Adiphenine HCl] showed a remaining activity at 1.25 µM ([1]; Well no.=5060, low concentration screen) of 105% and a remaining activity at 3.75 µM ([2]; Well no.=5060, high concentration screen) of 105%.
Work on `Cc1cn([C@H]2C=C[C@@H](CO)O2)c(=O)[nH]c1=O` [Stavudine] yielded a remaining activity at 1.25 µM ([1]; Well no.=7916, low concentration screen) of 99.6% and a remaining activity at 3.75 µM ([2]; Well no.=7916, high concentration screen) of 96.8%.
Molecule `O=c1cc(O)cc(/C=C/c2ccc(O)c(O)c2)o1` [Hispidin] has a remaining activity at 1.25 µM ([1]; Well no.=754, low concentration screen) of 98.7% and a remaining activity at 3.75 µM ([2]; Well no.=754, high concentration screen) of 96.8%.
`CCN1CCC[C@H]1CNC(=O)c1c(O)c(Cl)cc(Cl)c1OC` [S(+)-Raclopride L-tartrate] showed a remaining activity at 1.25 µM ([1]; Well no.=1354, low concentration screen) of 104% and a remaining activity at 3.75 µM ([2]; Well no.=1354, high concentration screen) of 103%.
Work on `CCC(=O)C(=O)O` [2-Oxobutanoic acid] yielded a remaining activity at 1.25 µM ([1]; Well no.=6293, low concentration screen) of 106% and a remaining activity at 3.75 µM ([2]; Well no.=6293, high concentration screen) of 105%.
`COc1cc2c(Nc3ccc(NC(=O)c4ccccc4)cc3)ncnc2cc1OCCCN1CCOCC1` [ZM 447439 - N-[4-[[6-Methoxy-7-[3-(4-morpholinyl)propoxy]-4-quinazolinyl]amino]phenyl]benzamide] showed a remaining activity at 1.25 µM ([1]; Well no.=2534, low concentration screen) of 97.3% and a remaining activity at 3.75 µM ([2]; Well no.=2534, high concentration screen) of 96.9%.
Work on `O=C[C@H](Cl)[C@@H](O)[C@H](O)[C@H](O)CO` [2-Chloro-2-deoxy-D-glucose] yielded a remaining activity at 1.25 µM ([1]; Well no.=441, low concentration screen) of 103% and a remaining activity at 3.75 µM ([2]; Well no.=441, high concentration screen) of 104%.
`Cc1ccc(O)c(O)c1` [4-Methylcatechol] gave a remaining activity at 1.25 µM ([1]; Well no.=6739, low concentration screen) of 106% and a remaining activity at 3.75 µM ([2]; Well no.=6739, high concentration screen) of 108%.
In the case of `Nc1nccc2c1ncn2[C@@H]1O[C@H](CO)[C@@H](O)[C@H]1O` [3-Deazaadenosine (hydrochloride)], the remaining activity at 1.25 µM ([1]; Well no.=7808, low concentration screen) is reported as 96.7% and the remaining activity at 3.75 µM ([2]; Well no.=7808, high concentration screen) is reported as 92.6%.
`CCCCC/C=C\C/C=C\C/C=C\C/C=C\CCCC(=O)NCCO` [Anandamide (20:4, n-6)] was tested, and the remaining activity at 1.25 µM ([1]; Well no.=4290, low concentration screen) was 99.3% and the remaining activity at 3.75 µM ([2]; Well no.=4290, high concentration screen) was 93%.
Work on `Cc1noc(-c2ccc(-c3ccc(CC(=O)O)cc3)cc2)c1NC(=O)O[C@H](C)c1ccccc1Cl` [AM966] yielded a remaining activity at 1.25 µM ([1]; Well no.=6941, low concentration screen) of 104% and a remaining activity at 3.75 µM ([2]; Well no.=6941, high concentration screen) of 102%.
In the case of `CC(C)=CCc1c(O)ccc(C(=O)/C=C/c2ccc(O)cc2)c1O` [Isobavachalcone], the remaining activity at 1.25 µM ([1]; Well no.=6538, low concentration screen) is reported as 102% and the remaining activity at 3.75 µM ([2]; Well no.=6538, high concentration screen) is reported as 97.1%.
`COc1cc(Cc2cnc(N)nc2N)cc(OC)c1OC` [Trimethoprim] gave a remaining activity at 1.25 µM ([1]; Well no.=1516, low concentration screen) of 96%, a remaining activity at 1.25 µM ([1]; Well no.=2006, low concentration screen) of 99.3% and a remaining activity at 3.75 µM ([2]; Well no.=1516, high concentration screen) of 94.5%. For the same molecule, the remaining activity at 3.75 µM ([2]; Well no.=2006, high concentration screen) was 97.8%.
With `CCOc1cc([C@@H](CS(C)(=O)=O)N2C(=O)c3cccc(NC(C)=O)c3C2=O)ccc1OC` [Apremilast (CC-10004)] the remaining activity at 1.25 µM ([1]; Well no.=5218, low concentration screen) was 97.8% and the remaining activity at 3.75 µM ([2]; Well no.=5218, high concentration screen) was 99.8%.
